Measured values from the supplement of paper PMC11451515.

Legend:
Assay in all cases: AUC of viability dose-response curve (% viability x log10 dose units); higher = less sensitive
Settings in all cases: 48 h
[1] = tested on: NOMO1
Outline: (§1)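 Leukemia cells adapted to each medium were seeded in 1536-well plates (500 or 1000 cells/well) and given library compounds in DMSO for 48 h at 37°C. The 11 threefold doses spanned 47 μM to 0.79 nM, and CellTiter-Glo One luminescence was normalised per plate to DMSO and cell-free wells before four-parameter log-logistic fitting on log10 dose. Area under the curve was integrated with the trapezoidal rule, scaling curves above full viability and removing curves that failed quality control.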

[2] = tested on: P12-Ichikawa
Outline: as §1

[3] = tested on: SEM cells
Outline: as §1

[4] = RPMI 5 mM glucose + 10% dialyzed FBS

Row | SMILES | AUC of viability dose-response curve ([1]; HPLM + 10% dialyzed FBS) | AUC of viability dose-response curve ([1]; RPMI 5 mM glucose + 10% FBS) | AUC of viability dose-response curve [1, 4] | AUC of viability dose-response curve ([2]; HPLM + 10% dialyzed FBS) | AUC of viability dose-response curve ([2]; RPMI 5 mM glucose + 10% FBS) | AUC of viability dose-response curve [2, 4] | AUC of viability dose-response curve ([3]; HPLM + 10% dialyzed FBS) | AUC of viability dose-response curve ([3]; RPMI 5 mM glucose + 10% FBS) | AUC of viability dose-response curve [3, 4]
1 | CC(C)C[C@H](NC(=O)[C@H](CCc1ccccc1)NC(=O)CN1CCOCC1)C(=O)N[C@@H](Cc1ccccc1)C(=O)N[C@@H](CC(C)C)C(=O)[C@@]1(C)CO1 | 177 | 152 | 169 | 162 | 139 | 140 | – | – | –
2 | COc1cc2ncnc(Nc3ccc(F)c(Cl)c3)c2cc1NC(=O)/C=C/CN1CCCCC1 | 408 | 426 | 418 | 433 | 444 | 436 | 417 | 415 | 416
3 | O=C(c1ccc(Nc2nccc(-c3cc4ccccc4s3)n2)cc1)N1CCC(N2CCCC2)CC1 | 411 | 446 | 432 | 430 | 441 | 425 | 382 | 389 | 394
4 | O=C(NC[C@H](O)CO)c1ccncc1Nc1ccc(I)cc1F | 328 | 290 | 309 | 467 | 437 | 464 | 426 | 376 | 378
5 | Nc1nc(N)c2nc(CNc3ccc(C(=O)NC(CCC(=O)O)C(=O)O)cc3)cnc2n1 (stereo not drawn) | 344 | 414 | 286 | 283 | 313 | 272 | 290 | 394 | 247
6 | Cc1[nH]c2ccccc2c1CCNCc1ccc(/C=C/C(=O)NO)cc1 | 300 | 311 | 312 | 298 | 292 | 304 | 265 | 251 | 273
7 | COC(=O)[C@@H]1[C@H]2C[C@H]3c4[nH]c5ccccc5c4CCN3C[C@@H]2CC[C@@H]1O | 356 | 325 | 350 | 373 | 378 | 402 | 440 | 441 | 451
8 | COc1cc2nccc(Oc3ccc(NC(=O)NC4CC4)c(Cl)c3)c2cc1C(N)=O | 439 | 448 | 445 | 429 | 429 | 430 | 378 | 378 | 359
9 | CC(C)C(=O)Nc1ccc([N+](=O)[O-])c(C(F)(F)F)c1 | 332 | 309 | 320 | 350 | 360 | 378 | 453 | 472 | 461
10 | C[S+](=O)([O-])N1CCc2c(-c3cnc(N)nc3)nc(N3CCOCC3)nc21 | 418 | 442 | 404 | 457 | 431 | 440 | – | – | –
11 | C=C[C@H]1CN2CC[C@H]1C[C@H]2[C@H](O)c1ccnc2ccc(OC)cc12 | 464 | 443 | 469 | 458 | 466 | 446 | 472 | 442 | 431
